Measurements as given in patent US8173376B2, “Method for identifying compounds for treatment of pain” (Universite Laval, priority 2003, dated 2012).
Entries after “also recorded” stand apart in the source; their conditions may differ.

Assays:
KCC2 = experiment: Immunoblot of spinal KCC2 protein after intrathecal oligodeoxynucleotide treatment; assay type: in vivo, rat; conditions: naïve rats, antisense 12 h or 36 h
Sprague-Dawley rats [1] = experiment: Tactile/mechanical nociceptive withdrawal threshold (von Frey) after intrathecal delivery; assay type: in vivo, rat; conditions: for Nociceptive threshold for mechanical stimulation: intrathecal, 10 μg/day x 6 days
lamina I (LI) neurons = experiment: Calcium imaging (fura-2-AM) of GABA-evoked [Ca2+]i rise in lamina I neurons in spinal cord slices; assay type: cell-based, rat
Sprague-Dawley rats [2] = experiment: Thermal nociceptive withdrawal latency after intrathecal injection; assay type: in vivo, rat; conditions: intact naïve rats, DIOA 15-30 μg intrathecal
GlyRs and GABAARs = experiment: Whole-cell recording of miniature postsynaptic currents (mPSCs) and GABA-evoked responses in LI neurons; assay type: cell-based, rat; conditions: LI neuron, p>0.5
lamina I neurons = experiment: Anion reversal potential (Eanion) by gramicidin-D perforated-patch voltage-clamp recording in dorsal horn slices; assay type: cell-based, rat
Sprague-Dawley rats [3] = conditions: intrathecal, at the doses used
[4] = test system: voltage sensitive Ca2+ channels (VSCCs) and NMDA receptor/channels; conditions: cited from earlier work; for Efficacy in the treatment of neuropathic pain: humans
[5] = lamina I neurons from naïve rats, 50 ng/ml in bath

## 5′-TCTCCTTGGGATTGCCGTCA-3′ (DNA, all phosphorothioate, methylation of C not given here) [KCC2 antisense oligodeoxynucleotide]
KCC2
  Spinal KCC2 protein levels (immunoblots): Decrease
Sprague-Dawley rats [1]; naïve rats, intrathecal antisense each 12 h (0 h, 12 h, 24 h), vs scrambled oligodeoxynucleotide
  Tactile nociceptive withdrawal threshold: significant decrease

## CCCCC1(C2CCCC2)Cc2cc(OCC(=O)O)c(Cl)c(Cl)c2C1=O (stereo not shown) [DIOA]
Lamina I (LI) neurons; naïve rat spinal slices, bath applied DIOA 30 μM
  LI neurons showing an increase in [Ca2+]i on GABA application: 30%
Lamina I (LI) neurons; naïve rats, in the presence of DIOA, χ2 corrected=4.43
  Proportion of LI neurons displaying a GABA-evoked increase in [Ca2+]i (in words): significantly higher
Sprague-Dawley rats [2]
  Nociceptive threshold to thermal stimuli (withdrawal latency): rapid and reversible decrease
Sprague-Dawley rats [1]; intact naïve rats, DIOA 15-30 μg intrathecal
  Nociceptive threshold to mechanical stimuli: rapid and reversible decrease
GlyRs and GABAARs; CsCl pipette, Eanion clamped at 0 mV, n=4 neurons x 50 mPSCs
  Effect on peak conductance of synaptic events (mPSCs): neither affected
GlyRs and GABAARs; n=5
  Effect on GABA-evoked responses: neither affected

## O=S(=O)(NCCNC/C=C/c1ccc(Br)cc1)c1cccc2cnccc12 [H-89]
Lamina I neurons; lamina I neurons from PNI rats, H-89 15 in bath
  Change of Eanion: significant hyperpolarization
Sprague-Dawley rats [1]; H-89 380 nmol local spinal delivery, vs vehicle
  Nociceptive threshold to mechanical stimulation: increase

## COC(=O)[C@@]1(O)C[C@H]2O[C@]1(C)n1c3ccccc3c3c4c(c5c6ccccc6n2c5c31)C(=O)NC4 [K-252a]
Lamina I neurons; lamina I neurons from PNI rats, K-252a 200 nM in bath
  Change of Eanion: hyperpolarization of the Eanion to a level similar to that observed in lamina I neurons taken from naïve rats; also recorded: significant hyperpolarization
Sprague-Dawley rats [1]; PNI rats, K-252a 6 nM intrathecal, vs vehicle
  Threshold for tactile nociceptive withdrawal: increase
Sprague-Dawley rats [3]
  Motor disturbances or sedation: did not produce any motor disturbances or sedation

## NCC1(CC(=O)O)CCCCC1 [gabapentin]
[4]
  Efficacy in the treatment of neuropathic pain: highly efficacious

## CNC1(c2ccccc2Cl)CCCCC1=O (stereo not shown) [ketamine]
[4]
  Efficacy in the treatment of neuropathic pain: highly efficacious
[4]; use of Ca2+ channel blockers / NMDA antagonists
  Side effects: many undesirable side effects

## NC1=N[C@H](O)[C@H]2[C@H]3O[C@]4(O)O[C@@H]([C@@H](O)[C@@]2(N1)[C@@H]4O)[C@]3(O)CO [tetrodotoxin]
Lamina I (LI) neurons
  Block of GABA-evoked [Ca2+]i responses: blocked

## KN-93
Lamina I neurons; lamina I neurons from PNI rats, KN-93 5 μM in bath
  Change of Eanion: significant hyperpolarization

## NGF: nerve growth factor, activator of TrkA, bath applied
Lamina I neurons; [5]
  Change of Eanion: significantly depolarized; also recorded: significant depolarization

## human recombinant NGF: human recombinant NGF for intrathecal delivery
Sprague-Dawley rats [1]; naïve rats
  Nociceptive threshold for mechanical stimulation: very similar decrease

B1: BDNF: brain-derived neurotrophic factor, activator of TrkB, bath applied (protein, UniProt P23560 19-247, looked up)
Neurotrophic factor BDNF …: APMKEANIRGQGGLAYPGVRTHGTLESVNGPKAGSRGLTSLADTFEHVIEELLDEDQKVRPNEENNKDADLYTSRVMLSSQVPLEPPLLFLLEEYKNYLDAANMSMRVRRHSDPARRGELSVCDSISEWVTAADKKTAVDMSGGTVTVLEKVPVSKGQLKQYFYETKCNPMGYTKEGCRGIDKRHWNSQCRTTQSYVRALTMDSKKRIGWRFIRIDTSCVCTLTIKRGR
Lamina I neurons; [5]
  Change of Eanion: significantly depolarized; also recorded: significant depolarization

B2: human recombinant BDNF: human recombinant BDNF for local spinal delivery (protein, UniProt P23560 19-247, looked up)
Neurotrophic factor BDNF …: B1 Neurotrophic factor BDNF …
Sprague-Dawley rats [1]; naïve rats
  Nociceptive threshold for mechanical stimulation: significant decrease
